# Patent US12692262B2, “Substituted ureas as orexin receptor agonists” (Merck Sharp & Dohme LLC, priority 2020, dated 2026)
# pEC50: −log10 of the molar value.
# Target: T1, human OX2R (Homo sapiens, UniProt O43614)
# T1 construct: expressed in transfected cells; host or cells: CHO (Chinese hamster ovary) cells grown under G418 selection
# T1 sequence (O43614 1-444): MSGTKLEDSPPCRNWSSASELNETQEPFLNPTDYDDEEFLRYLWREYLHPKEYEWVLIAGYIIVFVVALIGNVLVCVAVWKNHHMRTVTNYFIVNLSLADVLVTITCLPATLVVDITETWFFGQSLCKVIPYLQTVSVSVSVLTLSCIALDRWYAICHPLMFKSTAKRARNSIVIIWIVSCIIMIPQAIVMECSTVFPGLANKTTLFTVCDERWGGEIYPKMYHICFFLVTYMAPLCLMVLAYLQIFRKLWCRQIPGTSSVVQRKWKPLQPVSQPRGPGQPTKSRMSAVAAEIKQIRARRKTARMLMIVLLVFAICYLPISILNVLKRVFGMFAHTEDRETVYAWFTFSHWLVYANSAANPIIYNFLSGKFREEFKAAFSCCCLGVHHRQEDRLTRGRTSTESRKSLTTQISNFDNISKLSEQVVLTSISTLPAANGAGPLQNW
# Assay: IPOne (IP-1 accumulation) assay in CHO cells expressing human OX2R
# Format: cell-based
# Details: for pEC50: CHO cells expressing human OX2R, IP-One assay, 2 h incubation, four parameter logistic fit, read-out: OX2R Potency, EC50; for % of maximum agonist effect (relative to Orexin A): percent effect vs mean max effect of a reference compound at 1 uM (100% activity vs Orexin A), human OX2R
# Method in brief: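 CHO cells stably expressing human OX2R, grown in Iscove's modified DMEM with 10% FBS; agonist-driven IP-1 accumulation via the Gαq pathway measured by HTRF (D2/AB-cryptate detection after lysis). EC50 taken as the inflection point of a four-parameter logistic fit.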
SMILES,pEC50,% of maximum agonist effect (relative to Orexin A) [%],% of maximum agonist effect (relative to Orexin A) (1 µM) [%]
"CC[C@H](CCC(F)(F)F)NC(=O)N(CC)C(C)(C)c1cccc(-c2ccc3nccn3c2)c1 [Example 18, (R)-1-ethyl-1-(2-(3-(imidazo[1,2-a]pyridin-6-yl)phenyl)propan-2-yl)-3-(6,6,6-trifluorohexan-3-yl)urea]",6.90,99.6,
"C=Cc1ccc([C@@H](C)N(CC)C(=O)N[C@H](CC)CCC(F)(F)F)cc1-c1ccc2nccn2c1 [Example 19, 1-ethyl-1-((R)-1-(3-(imidazo[1,2-a]pyridin-6-yl)-4-vinylphenyl)ethyl)-3-((R)-6,6,6-trifluorohexan-3-yl)urea]",7.63,94.9,
"CCN(C(=O)N[C@@H](C=C(C)C)C(F)(F)F)[C@H](C)c1cccc(-c2cn3ccnc3c(OC)n2)c1 [Example 20, 1-ethyl-1-((R)-1-(3-(8-methoxyimidazo[1,2-a]pyrazin-6-yl)phenyl)ethyl)-3-((S)-1,1,1-trifluoro-4-methylpent-3-en-2-yl)urea]",,,100.1
"CCN(C(=O)NC(COC(C)=O)C(F)(F)F)[C@H](C)c1cccc(-c2cn3ccnc3c(OC)n2)c1 (stereo partly drawn) [Example 22, 2-(3-ethyl-3-((R)-1-(3-(8-methoxyimidazo[1,2-a]pyrazin-6-yl)phenylethyl)ureido)-3,3,3-trifluoropropyl acetate]",7.60,97.0,
"CC[C@H](CCC(F)(F)F)NC(=O)N(CC)[C@H](C)c1cccc(-c2cc3c(c(OC)c2)NCC3)c1 [Example 25, 1-ethyl-1-((R)-1-(3-(7-methoxyindolin-5-yl)phenyl)ethyl)-3-((R)-6,6,6-trifluorohexan-3-yl)urea]",6.21,98.5,
"CCN(C(=O)N[C@@H](CCC(F)(F)F)C(F)(F)F)[C@H](C)c1cccc(-c2cc(OC)c3nc(O)cn3c2)c1 [Example 26, 1-ethyl-3-((S)-1,1,1,5,5,5-hexafluoropentan-2-yl)-1-((R)-1-(3-(2-hydroxy-8-methoxyimidazo[1,2-a]pyridin-6-yl)phenyl)ethyl)urea]",6.84,89.1,
"CCN(C(=O)N[C@@H](CCC(F)(F)F)C(F)(F)F)[C@H](C)c1cccc(-c2cc(OC)c3nc(C(F)(F)F)cn3c2)c1 [Example 27, 1-ethyl-3-((S)-1,1,1,5,5,5-hexafluoropentan-2-yl)-1-((R)-1-(3-(8-methoxy-2-(trifluoromethyl)imidazo[1,2-a]pyridin-6-yl)phenyl)ethyl)urea]",6.21,98.5,
"CCN(C(=O)N[C@@H](CCC(F)(F)F)C(F)(F)F)C(=C(F)F)c1cc(-c2cn3ccnc3c(OC)n2)c(OC)cn1 [Example 28, (S)-1-(2,2-difluoro-1-(5-methoxy-4-(8-methoxyimidazo[1,2-a]pyrazin-6-yl)pyridin-2-yl)vinyl)-1-ethyl-3-(1,1,1,5,5,5-hexafluoropentan-2-yl)urea]",5.67,97.2,
"CCN(C(=O)N[C@@H](CCC(F)(F)F)C(F)(F)F)[C@H](C)c1cnc(O)c(-c2cc(OC)n3nccc3c2)c1 [Example 30, 1-ethyl-3-((S)-1,1,1,5,5,5-hexafluoropentan-2-yl)-1-((R)-1-(6-hydroxy-5-(7-methoxypyrazolo[1,5-a]pyridin-5-yl)pyridin-3-yl)ethyl)urea]",5.32,97.0,
